This is an account of results in patent US10029984B2, “Mono- or di-substituted indole derivatives as dengue viral replication inhibitors” (Janssen Pharmaceuticals, Inc., priority 2015, dated 2018).

The test system of one data set is DENV-4 strains H241. As to the kind of experiment: Tetravalent RT-qPCR assay Protocol A, serotype 4. The format is cell-based. Particulars: Dengue virus, DENV4, 72 h; RT-qPCR serotype 4 H241, Vero cells, day 3. (Quantitative PCR measures a nucleic acid by following its amplification.)
In another data set the test system is DENV-2 strain 16681. As to the kind of experiment: Tetravalent RT-qPCR assay Protocol A, serotype 2. The format is cell-based. To be noted: Dengue virus, DENV2, 72 h; RT-qPCR serotype 2 16681, Vero cells, day 3.
A further data set is described as follows: in vitro. The format is cell-based. To be noted: African green monkey, CC50.
In the next data set the test system is DENV-2 16681 strain. The data set is described as follows: DENV-2 antiviral assay (eGFP-labeled virus in Vero cells). The format is cell-based, Dengue virus. To be noted: DENV-2 16681 eGFP, MOI 0.5, 3 days, listed as 10B*. The method, boiled down: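 Vero cells were pre-plated with compound overnight, then infected with eGFP-labeled DENV-2 16681 at MOI 0.5 and incubated 3 days at 37 °C. eGFP fluorescence read by automated microscopy; 9-point 4-fold dilutions (25 μM–0.00038 μM final) in quadruplicate, EC50 by linear interpolation versus virus and cell controls.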

A further data set concerns DENV-3 strain H87. The data set is described as follows: Tetravalent RT-qPCR assay Protocol A, serotype 3. The format is cell-based. To be noted: Dengue virus, DENV3, 72 h; RT-qPCR serotype 3 H87, Vero cells, day 3. On the procedure: The antiviral activity of the compounds of the invention was tested against DENV-1 strain TC974#666 (NCPV; Table 6), DENV-2 strain 16681 (Table 7), DENV-3 strain H87 (NCPV; Table 8) and DENV-4 strains H241 (NCPV; Table 9) in a RT-qPCR assay. Therefore, Vero cells were infected with either DENV-1, or -2, or -3, or -4 in the presence or absence of test compounds. At day 3 post-infection, the cells were lysed and cell lysates were used to prepare cDNA of both a viral target (the 3′UTR of DENV; table 2) and a cellular reference gene (β-actin, table 2). Subsequently, a duplex real time PCR was performed on a Lightcycler480 instrument. The generated Cp value is inversely proportional to the amount of RNA expression of these targets. Inhibition of DENV replication by a test compound result in a shift of Cp's for the 3′UTR gene. On the other hand, if a test compound is toxic to the cells, a similar effect on β-actin expression will be observed. The comparative ΔΔCp method is used to calculate EC50, which is based on the relative gene expression of the target gene (3′UTR) normalized with the cellular housekeeping gene (β-actin).
The culture medium consisted of minimal essential medium supplemented with 2% of heat-inactivated fetal calf serum, 0.04% gentamycin (50 mg/mL) and 2 mM of L-glutamine. Vero cells, obtained from ECACC, were suspended in culture medium and 75 μL/well was added in 96-well plates (10000 cells/well), which already contain the antiviral compounds. Typically, these plates contain a 4-fold serial dilution of 9 dilution steps of the test compound at 200 times the final concentration in 100% DMSO (500 nL; final concentration range: 25 μM-0.00038 μM). In addition, each plate contains wells which are assigned as virus controls (containing cells and virus in the absence of compound) and cell controls (containing cells in the absence of virus and compound). Once the cells were added in the plates, the plates were incubated in a fully humidified incubator (37° C., 5% CO2) until the next day. Then, DENV-1 strain TC974#666 at an MOI of 0.6, DENV-2 strain 16681 at an MOI of 0.01, DENV-3 strain H87 at an MOI of 1.0 and DENV-4 strains H241 at an MOI of 0.2 and SG/06K2270DK1/2005 at an MOI of 0.16, were added. Therefore, 25 μL of virus suspension was added to all the wells containing test compound and to the wells assigned as virus control. In parallel, 25 μL of culture medium was added to the cell controls. Next, the plates were incubated for 3 days in a fully humidified incubator (37° C., 5% CO2). After 3 days, the supernatant was removed from the wells and the cells were washed twice with ice-cold PBS (˜100 μL). The cell pellets within the 96-well plates were stored at −80° C. for at least 1 day. Next, RNA was extracted using the Cells-to-CT™ lysis kit, according to the manufacture's guideline (Applied Biosystems). The cell lysates can be stored at −80° C. or immediately used in the reverse transcription step.
In preparation of the reverse transcription step, mix A (table 3A) was prepared and 7.57 μL/well was dispensed in a 96-well plate. After addition of 5 μL of the cell lysates, a five minute denaturation step at 75° C. was performed (table 3B). Afterwards, 7.43 μL of mix B was added (table 3C) and the reverse transcription step was initiated (table 3D) to generate cDNA.
Finally, a RT-qPCR mix was prepared, mix C (table 4A), dispensed in 96-well LightCycler qPCR plates to which 3 μL of cDNA was added and the qPCR was performed according to the conditions in table 4B on a LightCycler 480. Using the LightCycler software and an in-house LIMS system, dose response curves for each compound were calculated and the half maximal effective concentration (EC50) and the half maximal cytotoxic concentration (CC50) were determined.

pEC50: −log10 of the molar value.

Regarding `COc1cc(NC(C(=O)c2c[nH]c3cc(OC)c(C)cc23)c2ccc(F)cc2OC)cc(S(C)(=O)=O)c1` (single isomer, unassigned) [Enantiomer 10B, 2-(4-fluoro-2-methoxyphenyl)-2-((3-methoxy-5-(methylsulfonyl)phenyl)amino)-1-(6-methoxy-5-methyl-1H-indol-3-yl)ethanone], the pEC50 is 6.96 in the data set on DENV-4 strains H241, 9.22 with DENV-2 strain 16681, 9.17 in the data set with DENV-2 16681 strain and 7.26 in the data set with DENV-3 strain H87. Also, the CC50 at 3 days in “in vitro” stood at 5140 nM.

The term pEC50 denotes −log10 of the EC50, conventionally taken in molar units. The low end stands for a large EC50, the high end for a small EC50. The CC50 is the concentration giving 50% cytotoxicity.
